Measured values published in patent US20240400547A1, “2,6-PIPERIDINEDIONE COMPOUND AND APPLICATION THEREOF” (MEDSHINE DISCOVERY INC., priority 2021, published 2024).
Structures can show the parent of a compound that is named as a salt.

How the values were obtained:
SU-DHL-2 = assay: Antiproliferative effect in lymphoma cell line SU-DHL-2 (CellTiter-Glo); type: cell-based, human; details: SU-DHL-2, 4 days
Protocol: Experimental purpose: The experiment aims to evaluate the inhibitory effects of the test compounds on cell proliferation in the lymphoma cell line SU-DHL-2.
The tumor cell lines were cultured in a 37° C., 5% CO2 incubator under the above culture conditions. Regular passage, and cells in logarithmic growth phase were taken for plating.
• (1) Cells were stained with trypan blue and viable cells were counted. • (2) The cell concentration was adjusted to an appropriate concentration.
• (3) 50 μL of cell suspension per well was added to the culture plate as shown in the figure above. • (4) The culture plate was cultured overnight in a 37° C., 5% CO2 incubator with 100% relative humidity.
Compounds were added using the Echo655 instrument. The volume of compound added was 50 nL, with a final DMSO concentration of 0.1%. The culture plate was centrifuged at 1000 rpm for 1 minute, then incubated for 4 days in an incubator at 37° C., 5% CO2, and with 100% relative humidity.
The following steps were performed according to the instructions of Promega CellTiter-Glo luminescent cell viability assay kit (Promega-G7573). • (1) CellTiter-Glo buffer was melted and brought to room temperature. • (2) CellTiter-Glo substrate was brought to room temperature. • (3) CellTiter-Glo working solution was prepared by adding CellTiter-Glo buffer to a vial of CellTiter-Glo substrate to dissolve the substrate; • (4) The mixture was slowly vortexed and shaken to be fully dissolved. • (5) The cell culture plate was taken out and left for 30 minutes to equilibrate to room temperature. • (6) 25 μL of CellTiter-Glo working solution was added per well (equal to half the volume of cell culture medium per well). The cell plate was wrapped in aluminum foil to be protected from light. • (7) The culture plate was shaken on an orbital shaker for 2 minutes to induce cell lysis. • (8) The culture plate was left at room temperature for 10 minutes to stabilize the luminescent signal. • (9) The luminescent signal was detected on a 2104 EnVision plate reader.
The inhibition rate (IR) of the test compound was calculated using the following formula: IR (%)=(1−(RLU compound/RLU blank control)/(RLU vehicle control−RLU blank control)×100%. The inhibition rates of compounds at different concentrations were calculated in Excel, and then GraphPad Prism software was used to plot inhibition curves and calculate relevant parameters, including minimum inhibition rate, maximum inhibition rate, and IC50.

IRAK4 = target: T1, IRAK4 (Homo sapiens, UniProt Q9NWZ3); assay: Target protein degradation in K562 IRAK4-HiBiT cells (Nano-Glo HiBiT); type: cell-based; details: 16 to 18 hours
T1 construct: expressed in transfected cells; host or cells: K562 IRAK4-HiBiT cells
T1 sequence (Q9NWZ3 1-460): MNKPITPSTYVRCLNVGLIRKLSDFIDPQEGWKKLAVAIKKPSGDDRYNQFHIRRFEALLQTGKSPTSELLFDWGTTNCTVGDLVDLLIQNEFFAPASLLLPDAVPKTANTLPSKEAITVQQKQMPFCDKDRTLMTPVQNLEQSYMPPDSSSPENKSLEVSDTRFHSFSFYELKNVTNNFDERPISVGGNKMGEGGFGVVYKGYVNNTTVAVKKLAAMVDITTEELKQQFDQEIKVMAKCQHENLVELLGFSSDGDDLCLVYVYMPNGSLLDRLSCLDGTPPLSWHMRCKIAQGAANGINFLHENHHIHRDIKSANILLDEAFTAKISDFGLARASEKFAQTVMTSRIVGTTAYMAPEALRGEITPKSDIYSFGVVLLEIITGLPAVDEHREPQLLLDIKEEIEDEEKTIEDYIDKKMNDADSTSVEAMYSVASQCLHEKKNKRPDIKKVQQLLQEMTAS
Protocol: Experimental objective: The experiment aims to evaluate the degradation effect of the test compounds on the target protein IRAK4 in K562 IRAK4-HiBiT cells.
• Cells: K562 IRAK4-HiBiT cells • Culture medium: RPMI 1640+10% fetal bovine serum+2 mM glutamine+1 mM sodium pyruvate+penicillin/streptomycin. • Positive control: 1000 nM; negative control: 0.1% DMSO.
• (1). The powder of the compound to be tested was dissolved in DMSO to a storage concentration of 10 mM. A total of 9 μL of the 10 mM of the compound to be tested was manually pipetted into the 1st and 13th columns of the LDV plate using a pipettor; • (2). A volume of 6 μL of DMSO was added to columns 2-12 and 14-24 using a Multidrop Combi; • (3). A 3-fold dilution of the test compounds (3 μL+6 μL) was performed using Bravo, for columns 1-11 and 13-23; • (4). According to the plate layout, 25 nL of compound solution (columns 1-24 of the LDV plate) was transferred to the experimental plate using Echo; • (5) 25 nL of the 1 mM positive control solution was transferred to the assay plate as a 100% degradation control (i.e. LC, HPE), and 25 nL of DMSO was transferred to the assay plate as a 0% control (i.e. HC, ZPE).
• (1) The culture medium was discarded, and the cells were washed once with DPBS, digested with trypsin, counted, and prepared into a cell suspension of […]. • (2) Using the MultiDrop Combi at a medium speed, 25 μL/well of the cell suspension was added to the experimental plate containing the test compounds; • (3) The experimental plate containing cells was returned to the incubator and cultured for 16 to 18 hours at 37° C. and 5% CO2.
• (1). Using the MultiDrop Combi at a high speed, 25 μL/well of the assay reagent (NanoGlo lytic solution+substrate+LgBit protein) was added to the assay plate, followed by shaking for 10 minutes; • (2) The plate was centrifuged at 2000 rpm for 1 minute to remove any bubbles; • (3) Readings were obtained by using an Envision, US Luminescence reader.
To calculate the degradation rate (DR) of the test compounds, the following formula is used: IR (%)=(RLU vehicle control−RLU compound)/(RLU vehicle control−RLU positive control)×100%. The solvent control refers to the blank control. The degradation rates of compounds at different concentrations were calculated in Excel, and then XLFit software was used to plot inhibition curves and calculate relevant parameters, including minimum degradation rate, maximum degradation rate, and DC50.

IKZF1 = target: T2, IKZF1 (Homo sapiens, UniProt Q13422+Q96SW2); assay: In Cell Western of IKZF1 protein expression level in MM.1S cells; type: cell-based; details: IKZF1, MM.1S cells, 24 hours
T2 construct: host or cells: MM.1S cells
T2 sequence (Q13422 whole entry): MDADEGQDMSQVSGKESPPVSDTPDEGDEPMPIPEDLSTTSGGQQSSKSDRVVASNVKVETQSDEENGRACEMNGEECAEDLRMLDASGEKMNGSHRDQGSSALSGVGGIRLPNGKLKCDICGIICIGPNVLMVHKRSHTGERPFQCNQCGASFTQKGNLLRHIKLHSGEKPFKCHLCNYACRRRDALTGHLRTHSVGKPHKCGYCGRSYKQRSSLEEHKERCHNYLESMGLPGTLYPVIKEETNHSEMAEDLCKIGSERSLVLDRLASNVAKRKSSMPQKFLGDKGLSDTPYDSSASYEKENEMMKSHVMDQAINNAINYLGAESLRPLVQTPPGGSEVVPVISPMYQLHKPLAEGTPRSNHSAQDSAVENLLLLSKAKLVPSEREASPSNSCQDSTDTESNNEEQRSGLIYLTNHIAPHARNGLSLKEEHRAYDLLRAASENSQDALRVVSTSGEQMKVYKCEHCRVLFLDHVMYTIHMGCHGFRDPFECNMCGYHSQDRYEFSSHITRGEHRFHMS
T2 sequence (Q96SW2 whole entry): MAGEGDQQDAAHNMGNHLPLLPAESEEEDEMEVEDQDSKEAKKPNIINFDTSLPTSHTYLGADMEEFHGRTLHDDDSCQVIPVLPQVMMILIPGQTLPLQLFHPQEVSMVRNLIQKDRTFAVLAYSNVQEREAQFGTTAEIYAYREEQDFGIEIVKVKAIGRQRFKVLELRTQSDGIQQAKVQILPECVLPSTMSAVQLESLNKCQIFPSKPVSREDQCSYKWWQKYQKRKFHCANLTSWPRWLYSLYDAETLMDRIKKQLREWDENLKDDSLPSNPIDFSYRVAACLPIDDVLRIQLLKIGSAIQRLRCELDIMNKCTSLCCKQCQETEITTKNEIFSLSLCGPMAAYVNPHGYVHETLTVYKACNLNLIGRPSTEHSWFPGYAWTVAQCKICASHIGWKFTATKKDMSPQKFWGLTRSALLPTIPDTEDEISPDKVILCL
T2 sequence (Q16531 whole entry partner): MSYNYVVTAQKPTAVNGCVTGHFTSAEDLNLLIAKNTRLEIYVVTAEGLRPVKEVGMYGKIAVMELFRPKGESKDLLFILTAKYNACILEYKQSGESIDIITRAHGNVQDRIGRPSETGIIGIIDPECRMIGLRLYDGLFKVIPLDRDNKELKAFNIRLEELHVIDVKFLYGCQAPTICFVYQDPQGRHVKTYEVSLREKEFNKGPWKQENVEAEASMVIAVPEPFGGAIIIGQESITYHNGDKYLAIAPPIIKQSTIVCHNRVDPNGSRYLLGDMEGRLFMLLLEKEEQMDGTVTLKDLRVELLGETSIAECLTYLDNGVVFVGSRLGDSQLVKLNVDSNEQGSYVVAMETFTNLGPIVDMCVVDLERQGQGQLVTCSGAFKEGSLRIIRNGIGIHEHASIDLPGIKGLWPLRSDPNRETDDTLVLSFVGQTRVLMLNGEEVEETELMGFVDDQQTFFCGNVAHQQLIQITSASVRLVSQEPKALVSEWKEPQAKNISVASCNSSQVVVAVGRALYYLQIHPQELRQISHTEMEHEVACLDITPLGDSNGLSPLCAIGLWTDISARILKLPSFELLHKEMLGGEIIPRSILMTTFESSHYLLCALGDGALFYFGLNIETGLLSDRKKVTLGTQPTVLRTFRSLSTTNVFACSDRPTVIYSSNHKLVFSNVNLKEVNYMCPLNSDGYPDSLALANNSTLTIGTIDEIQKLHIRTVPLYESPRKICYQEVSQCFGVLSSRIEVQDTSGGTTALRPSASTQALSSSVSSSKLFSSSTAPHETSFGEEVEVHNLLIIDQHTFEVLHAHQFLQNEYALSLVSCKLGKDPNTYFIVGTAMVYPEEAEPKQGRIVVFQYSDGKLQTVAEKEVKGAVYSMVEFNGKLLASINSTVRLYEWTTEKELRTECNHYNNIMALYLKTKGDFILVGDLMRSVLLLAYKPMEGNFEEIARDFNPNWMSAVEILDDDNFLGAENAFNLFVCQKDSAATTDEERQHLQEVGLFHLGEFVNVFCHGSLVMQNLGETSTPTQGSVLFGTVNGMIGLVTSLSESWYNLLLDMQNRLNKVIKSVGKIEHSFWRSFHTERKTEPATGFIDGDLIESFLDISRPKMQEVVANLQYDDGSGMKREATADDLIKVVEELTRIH
Protocol: Experimental objective: The experiment aims to assess the degradation effect of the test compounds on IKZF1 and 1KZF3 proteins in MM.1S cells by evaluating the impact of the test compounds on the expression levels of IKZF1 and IZKZF3 proteins in MM.1S cells.
• Cell lines: MMN.1 S cell (sourced from ATCC; Cat. No CRL-2974) • Negative control: 0.100 DMSO.
• 1) Log phase MM.1 S cells were plated in a 96-well plate at 1.2×10^5 cells per well and cultured overnight; • 2) The next day, compounds were added with a starting concentration of 300 nM, diluted threefold across three replicate wells for 10 concentration gradients (including DMSO), and the cells were incubated for 24 hours in an incubator; • 3) The cells were centrifuged, and the supernatant was carefully removed. 150 μL of 4% paraformaldehyde fixative was added along the wall of the wells, avoiding contact with the bottom cells, and the cells were incubated at room temperature for 20 minutes; • 4) Lysis buffer was prepared by mixing 0.5 mL of 10% Triton X-100 with 49.5 mL of PBS until homogenous; • 5) 200 μL of lysis buffer was added along the well walls, again avoiding the bottom cells, and incubated on a shaker at room temperature for 5 minutes; • 6) The wells were washed four times; • 7) 150 μL of Licor […] Blocking Buffer was added along the well walls, avoiding the bottom cells, and the cells were incubated on a shaker at room temperature for 1.5 hours; • 8) Ikaros (D6N9Y) Rabbit mAb, Aiolos (D1C1E) Rabbit mAb and GAPDH mouse mAb (proteintech, 60004-1-Ig) were diluted at a 1:100 ratio using antibody dilution buffer; • 9) 50 μL of mixed antibody was added to each well with three replicate wells, and the cells were incubated overnight on a shaker at 4° C.; • 10) PBST (PBS with 0.1% Tween 20) was prepared; • 11) The primary antibodies were removed, and 200 μL of PBST was added along the well walls, avoiding the bottom cells, and the cells were incubated on a shaker at room temperature for 5 minutes; • 12) The wells were washed four times; • 13) Secondary antibody dilution buffer was prepared by adding Tween 20 to Licor […] Blocking Buffer to a final concentration of 0.2%; • 14) Fluorescent secondary antibodies were diluted in the dark at a 1:800 ratio. To 400 μL of secondary antibody dilution solution, 0.5 μL of each IRDye 800CW and IRDye 680CW (corresponding to the primary antibodies) was added. • 15) 50 μL of the diluted fluorescent secondary antibodies was added to each well and the cells were incubated on a shaker at room temperature in the dark for 60 minutes; • 16) The secondary antibodies were removed, and 200 μL of PBST was added along the well walls, avoiding the bottom cells, and the cells were incubated on a shaker at room temperature in the dark for 5 minutes; • 17) The wells were washed four times; immediately after washing, the Odyssey Gel Imaging System was used for detection at dual wavelengths of 700 nm and 800 nm.
Using GraphPad Prism 6 software, inhibition rate data was entered to fit the curve and calculate the DC50 value.

| Structure (SMILES) | IC50 (SU-DHL-2; Homo sapiens, 96 h) [nM] | Maximum inhibition rate (SU-DHL-2) [%] | DC50 (IRAK4) [nM] | Dmax (IRAK4; read-out: Maximum degradation rate) [%] | DC50 (IKZF1) [nM] | Dmax (IKZF1; MM1.S, read-out: Maximum degradation rate Dmax) [%] |
| --- | --- | --- | --- | --- | --- | --- |
| CN(CCCOCCCc1ccc2occ(C3CCC(=O)NC3=O)c2c1)C[C@H]1CC[C@H](n2cc(NC(=O)c3coc(-c4ccnc(NCC5CC5)c4)n3)c(C(F)F)n2)CC1 (stereo partly drawn) [Hydrochloride of WX004] | 64.5 | 99.05 |  |  |  |  |
| CN(CCCOCCCc1ccc2c(ccc3onc(C4CCC(=O)NC4=O)c32)c1)C[C@H]1CC[C@H](n2cc(NC(=O)c3coc(-c4ccnc(NCC5CC5)c4)n3)c(C(F)F)n2)CC1 (stereo partly drawn) [Hydrochloride of WX016] |  |  | 70.7 | 93.1 | 6.02 | 81.6 |
